# According to patent publication US11702422B2, “Imidazopyridazines as modulators of IL-17” (Janssen Pharmaceutica NV, priority 2020, dated 2023):
# pIC50: −log10 of the molar value.
# Columns and labels:
# [1] = target: IL-17A(FLAG-Tagged): IL-17RA(His-Tagged) (Homo sapiens, UniProt Q16552, K93Q); experiment: IL-17A(FLAG-Tagged): IL-17RA(His-Tagged) Binding Disruption Eu-HTRF Assay; settings: IL-17A/IL-17RA binding disruption, simple average if tested more than once
# Excerpt: IL-17A(FLAG-Tagged): IL-17RA(His-Tagged) Binding Disruption Eu-HTRF Assay
# An antibody directed against the FLAG tag of IL-17A (SEQ ID NO:1) is labeled with the HTRF donor chromophore (Europium-cryptate). IL-17A is present as a dimer that is “locked into” this quaternary structure due to the formation of loop-spanning […] disulfide bridges. The construct of IL-17RA used in the assay excludes the […] portion of the receptor and is fused to a C-terminal 10×His tag (SEQ ID NO:2). An antibody directed against the His tag of the IL-17RA chimera is labeled with the HTRF acceptor chromophore (“D2”). The fluorescence-resonance energy transfer (FRET) depends on the vicinity of the donor chromophore to the acceptor, and interruption of the binding between the IL-17A and IL-17RA causes the reduction/loss of FRET. Therefore, this assay allows to evaluate the compound effect on the binding IL-17A and IL-17RA by monitoring the fluorescence intensity of donor vs acceptor. The assay is run as described below.
# 40 nl of 2-fold serial diluted compound solution for total 22 dilution points is added into each well of a 1536-well, white, low-volume, non-binding plate (Greiner #782904), then 2 μl of FLAG tagged IL-17A at 2× final concentration (2.5 nM) in solution of PBS+0.01% Triton-X100 is added to each well. The assay plate is briefly centrifuged then incubated for 1 h at rt. A mixed solution is prepared containing 2×5 nM 10HIS×IL-17RA, 2×2.5 nM Eu-anti-FLAG (CISBIO), 2×5 nM D2-anti-HIS (CISBIO) in PBS+0.01% Triton-X100+200 mM Potassium Fluoride (Sigma 60238) and 2 μl of mix is added to each well of the assay plate. The plate is briefly centrifuged then incubated for 2 h at rt. The HTRF intensities at the wavelength of donor (620 nm) and acceptor (665 nm) are measured using BMG Pherastar. The ratio between intensities at two wavelengths is calculated and plotted against the compound concentration and the data is fitted to a one-site competition model to yield IC50 of the compound.
# [2] = test system: IL-17A-induced G-CSF production in human normal keratinocyte (NHK); experiment: NHK Assay: IL-17A-induced G-CSF production in human normal keratinocytes; assay type: cell-based; settings: 24 h, adult normal human keratinocytes, IL-17A 5 ng/mL, simple average if tested more than once
# Description: IL-17A acts directly on keratinocytes through binding to dimeric receptor IL-17RA/RC and drives the production of a number of inflammatory mediators known to be elevated in psoriasis lesional tissue. IL-17A small molecule inhibitors that block the IL-17A to interact with IL-17R would inhibit the IL-17A signaling in its targeted cells such as keratinocytes. The compound functional activity is evaluated for its impact on IL-17A-induced G-CSF production in human normal keratinocyte (NHK).
# Adult normal human keratinocytes are cultured in keratinocyte growth medium (Lonza) in a flask till reaching ˜ 90% confluence, then cells are transferred to a 384-well plate at density of 3000-4000 cell/well. Recombinant human IL-17A (Gibco PHC9174) is pre-incubated with titrated compound or DMSO for 1 h at rt then added to the cell culture plate. The final concentration of IL-17A is 5 ng/mL and DMSO is 0.2%, in the culture containing 5% FBS. Cells are cultured/treated for 24 h at 37° C. Supernatants are collected and G-CSF production is measured through HTRF technology using Human G-CSF Kit (CisBio). G-CSF concentration was extrapolated from the standard curve and IC50 is determined using GraphPad Prism. Cell viability is also evaluated using CellTiter-Glo kit (Promega) and effect of compound on cell viability is compared to DMSO control.
# Sequence of UniProt Q16552 (Q16552 with tags, fused parts or gaps K93Q): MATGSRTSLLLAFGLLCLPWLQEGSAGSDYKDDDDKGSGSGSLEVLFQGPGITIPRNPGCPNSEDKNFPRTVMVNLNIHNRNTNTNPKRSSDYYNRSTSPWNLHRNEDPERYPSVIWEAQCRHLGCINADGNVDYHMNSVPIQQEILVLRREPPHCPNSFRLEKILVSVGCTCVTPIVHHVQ
pIC50 [1],SMILES,"pIC50 ([2]; Homo sapiens, Keratinocyte)",pIC50 [2]
6.03,"CC1(C(=O)N[C@H](c2cn3ncc([C@H](NC(=O)CCC(F)(F)F)C4CC4)cc3n2)C2CCC(F)(F)CC2)CC1(F)F (stereo partly drawn) [Example 148, N—((S)-(7-((R)-Cyclopropyl(4,4,4-trifluorobutanamido)methyl)imidazo[1,2-b]pyridazin-2-yl)(4,4-difluorocyclohexyl)methyl)-2,2-difluoro-1-methylcyclopropane-1-carboxamide]",5.77,–
6.66,"CC(C)n1nccc1C(=O)N[C@H](c1cn2ncc([C@H](NC(=O)C[C@@](C)(O)C(F)(F)F)C3CC3)cc2n1)C1CCC(F)(F)CC1 (relative stereo) [Example 132, N—((S)-(7-((R*)-Cyclopropyl((R*)-4,4,4-trifluoro-3-hydroxy-3-methylbutanamido)methyl)imidazo[1,2-b]pyridazin-2-yl)(4,4-difluorocyclohexyl)methyl)-1-isopropyl-1H-pyrazole-5-carboxamide]",6.59,–
6.89,"CC(C)n1nccc1C(=O)N[C@H](c1cn2ncc([C@H](NC(=O)C[C@@H]3CC3(F)F)C3CC3)cc2n1)C1CCC(F)(F)CC1 (single isomer, unassigned) [Example 141]",6.70,–
7.07,"Cc1nonc1C(=O)N[C@H](c1cn2ncc([C@H](NC(=O)CC34CC(F)(C3)C4)C3CC3)cc2n1)C1CCC(F)(F)CC1 [Example 272, N—((S)-(7-((R)-Cyclopropyl(2-(3-fluorobicyclo[1.1.1]pentan-1-yl)acetamido)methyl)imidazo[1,2-b]pyridazin-2-yl)(4,4-difluorocyclohexyl)methyl)-4-methyl-1,2,5-oxadiazole-3-carboxamide]",6.54,–
7.47,"Cc1nonc1C(=O)N[C@H](c1cn2ncc([C@H](NC(=O)CC3CC(F)(F)C3)C3CC3)cc2n1)C1CCC(F)(F)CC1 [Example 142, N—((S)-(7-((R)-Cyclopropyl(2-(3,3-difluorocyclobutyl)acetamido)methyl)imidazo[1,2-b]pyridazin-2-yl)(4,4-difluorocyclohexyl)methyl)-4-methyl-1,2,5-oxadiazole-3-carboxamide]",6.85,–
6.66,"[2H]C([2H])([2H])C([2H])([2H])n1nccc1C(=O)N[C@H](c1cn2ncc(C(COCC)NC(=O)CC3CC(F)(F)C3)cc2n1)C1CCC(F)(F)CC1 (single isomer, unassigned) [Example 531, N—((S)-(7-((S*)-1-(2-(3,3-Difluorocyclobutyl)acetamido)-2-ethoxyethyl)imidazo[1,2-b]pyridazin-2-yl)(4,4-difluorocyclohexyl)methyl)-1-(ethyl-d5)-1H-pyrazole-5-carboxamide]",–,6.96
5.77,"Cc1cccc(C(=O)N[C@H](c2cn3ncc([C@H](NC(=O)CCC(F)(F)F)C4CC4)cc3n2)C2CCC(F)(F)CC2)n1 [Example 224, N—((S)-(7-((R)-Cyclopropyl(4,4,4-trifluorobutanamido)methyl)imidazo[1,2-b]pyridazin-2-yl)(4,4-difluorocyclohexyl)methyl)-6-methylpicolinamide]",< 4.70,–
6.62,"O=C(CCC(F)(F)F)N[C@@H](c1cnn2cc([C@@H](NC(=O)c3cccnc3)C3CCC(F)(F)CC3)nc2c1)C1CC1 [Example 192, N—((S)-(7-((R)-Cyclopropyl(4,4,4-trifluorobutanamido)methyl)imidazo[1,2-b]pyridazin-2-yl)(4,4-difluorocyclohexyl)methyl)nicotinamide]",5.92,–
6.85,"CC(C)n1nccc1C(=O)N[C@H](c1cn2ncc([C@H](NC(=O)CCC3CC3(F)F)C3CC3)cc2n1)C1CCC(F)(F)CC1 (single isomer, unassigned) [Example 271, N—((S)-(7-((R)-Cyclopropyl(3-((S*)-2,2-difluorocyclopropyl)propanamido)methyl)imidazo[1,2-b]pyridazin-2-yl)(4,4-difluorocyclohexyl)methyl)-1-isopropyl-1H-pyrazole-5-carboxamide]",–,7.17
5.64,"CC(C)n1nccc1C(=O)N[C@H](c1cn2ncc(C(NC(=O)CC3CC(F)(F)C3)C(C)(C)O)cc2n1)C1CCC(F)(F)CC1 (single isomer, unassigned) [Example 444, N—((S)-(7-((R*)-1-(2-(3,3-Difluorocyclobutyl)acetamido)-2-hydroxy-2-methylpropyl)imidazo[1,2-b]pyridazin-2-yl)(4,4-difluorocyclohexyl)methyl)-1-isopropyl-1H-pyrazole-5-carboxamide]",–,4.96
5.34,"O=C(CCC(F)(F)F)N[C@@H](c1cnn2cc([C@@H](NC(=O)c3nccc(C(F)(F)F)n3)C3CCC(F)(F)CC3)nc2c1)C1CC1 [Example 217, N—((S)-(7-((R)-Cyclopropyl(4,4,4-trifluorobutanamido)methyl)imidazo[1,2-b]pyridazin-2-yl)(4,4-difluorocyclohexyl)methyl)-4-(trifluoromethyl)pyrimidine-2-carboxamide]",< 4.70,–
6.05,"CCOCC(NC(=O)CC1CC(F)(F)C1)c1cnn2cc([C@@H](NC(=O)c3ccnn3C(C)C)C3CCC(F)(F)CC3)nc2c1 (single isomer, unassigned) [Example 528, N—((S)-(7-((R*)-1-(2-(3,3-Difluorocyclobutyl)acetamido)-2-ethoxyethyl)imidazo[1,2-b]pyridazin-2-yl)(4,4-difluorocyclohexyl)methyl)-1-isopropyl-1H-pyrazole-5-carboxamide]",–,5.62
7.10,"O=C(CCC(F)(F)F)N[C@@H](c1cnn2cc([C@@H](NC(=O)c3cccc(OCC(F)(F)F)c3)C3CCC(F)(F)CC3)nc2c1)C1CC1 [Example 174, N—((S)-(7-((R)-Cyclopropyl(4,4,4-trifluorobutanamido)methyl)imidazo[1,2-b]pyridazin-2-yl)(4,4-difluorocyclohexyl)methyl)-3-(2,2,2-trifluoroethoxy)benzamide]",6.41,–
7.09,"CCn1nncc1C(=O)N[C@H](c1cn2ncc([C@H](NC(=O)CCC(F)(F)F)C3CC3)cc2n1)C1CCC(F)(F)CC1 [Example 58, N—((S)-(7-((R)-Cyclopropyl(4,4,4-trifluorobutanamido)methyl)imidazo[1,2-b]pyridazin-2-yl)(4,4-difluorocyclohexyl)methyl)-1-ethyl-1H-1,2,3-triazole-5-carboxamide]",6.57,–
6.68,"Cc1nonc1C(=O)N[C@H](c1cn2ncc([C@H](NC(=O)COC3CC3)C3CC3)cc2n1)C1CCC(F)(F)CC1 [Example 306, N—((S)-(7-((R)-(2-Cyclopropoxyacetamido)(cyclopropyl)methyl)imidazo[1,2-b]pyridazin-2-yl)(4,4-difluorocyclohexyl)methyl)-4-methyl-1,2,5-oxadiazole-3-carboxamide]",5.82,–
6.19,"N#CC12CC(Cn3nncc3C(=O)N[C@H](c3cn4ncc([C@H](NC(=O)CCC(F)(F)F)C5CC5)cc4n3)C3CCC(F)(F)CC3)(C1)C2 [Example 145, 1-((3-Cyanobicyclo[1.1.1]pentan-1-yl)methyl)-N—((S)-(7-((R)-cyclopropyl(4,4,4-trifluorobutanamido)methyl)imidazo[1,2-b]pyridazin-2-yl)(4,4-difluorocyclohexyl)methyl)-1H-1,2,3-triazole-5-carboxamide]",6.52,–
